Results on four compounds are retold here after patent publication US7871644B2, “Pharmaceutical composition for oral use with improved absorption” (Astellas Pharma Inc., priority 2000, dated 2011).

Structures are written as SMILES.

A short description of data set [1]: Number of insoluble particulate matter after adding calcium chloride to bisphosphonate solution. The following applies: calcium chloride solution added, 0-60 minutes.
Procedure: Another 2 ml distilled water were added to this liquid.
Then 2 ml of an aqueous 10 mg/ml calcium chloride.2H2O solution were added to this liquid.
The nature of data set [2]: Number of insoluble particulate matter after adding magnesium chloride to compound B solution. To be noted: compound B solution with sodium bicarbonate, magnesium chloride solution added, 0-60 minutes, FIG. 7.
Procedure: Another 2 ml distilled water were added to this solution and the number of insoluble particulate matter (2 μm or larger) was determined 0, 15, 30, and 60 minutes after addition using an insoluble particulate matter gauge (HIAC/ROYCO®, Pacific Scientific).
Two milliliters aqueous 10 mg/ml magnesium chloride.6H2O solution were added to this prepared liquid, and the number of insoluble particulate matter (2 μm or larger) was determined 0, 15, 30 and 60 minutes after addition by the same method as in Experiment 11.
Two milliliters aqueous 10 mg/ml magnesium chloride.6H2O were added to this prepared liquid, and the number of insoluble particulate matter (2 μm or larger) was determined 0, 15, 30 and 60 minutes after addition by the same method as in Experiment 11.
Data set [3] is described as follows: Oral administration of compound B tablets to beagles 30 minutes after feed. The data set is classed as in vivo. To be noted: fed beagles.
For data set [4] the following is noted: J. Pharm. Sci, 86, 1997; cited from earlier work.
The conditions of data set [5]: Int. J. Pharm., 1993; cited from earlier work.

With `O=P(O)(O)C(NC1CCCCCC1)P(=O)(O)O` [compound C, [(cycloheptylamino)-methylene]bis-phosphonate], the “number of insoluble particulate matter (10 μm or larger)” value in data set [1] (compound C solution with sodium bicarbonate, FIG. 4) is on record as “increase in the number of insoluble particulate matter”.

Turning to `O=P(O)(O)C(O)(Cc1cnc2ccccn12)P(=O)(O)O` [compound B], the “number of insoluble particulate matter (2 μm or larger)” value in data set [2] was “increase in the number of insoluble particulate matter”. Further, the “number of insoluble particulate matter (10 μm or larger)” value in data set [1] (compound B solution, FIG. 2) is “increase in the number of insoluble particulate matter”. Moreover, the “Cmax and AUC when taken with food” value in data set [3] was “low Cmax and AUC”.

For `CC(O)(P(=O)(O)O)P(=O)(O)O` [compound D, (1-hydroxyethylidene)-1,1-bisphosphonate], the “number of insoluble particulate matter (2 μm or larger)” value in data set [1] (compound D solution with sodium bicarbonate, FIG. 5) is reported as “increase in the number of insoluble particulate matter”.

As for `C[C@]12CC[C@H]3[C@@H](CCC4=CC(=O)CC[C@@]43C)[C@@H]1CC[C@@H]2O` [testosterone], the “reduction of the diffusion coefficient by the mucous layer” value in data set [4] is given as 50%. Further, in data set [5], the “share of the barrier to absorption accounted for by the mucous layer” value is 78%.
